“And” between values parts separate entries of the source, which are not always exact repeats. Equal entries are not always repeated.
What was measured:
[1] = system: kidney; test: Renal histopathology of rats treated with T1, T2, T3; assay type: in vivo, rat; conditions: rats
Protocol: Each group consisted of 6 male and 6 female rats. The additional groups consisted of 6 males and 6 female rats treated with control compound for a single day and for five days, as described in Table 24.
T2 “no observed effect level” (NOEL, i.e., the maximal dose at which no toxic effect is visible) is 15 mg/kg.
At autopsy, both kidneys of each animal were removed and each kidney was cross sectioned. Half of each kidney was sent to RNA extraction and analysis.

[2] = system: kidney tissues of treated or untreated rats; test: Real-time qRT-PCR of signature amplicons, validation stage, labeled and un-labeled samples (Table 23); conditions: for H31883_DB71_seg13 normalized qRT-PCR result / MUSCYCG1R_DB81_seg19-20 normalized qRT-PCR result / W41270_DB81_seg11 normalized qRT-PCR result: un-labeled sample, one line per animal; for AI045075_DB71_seg6 normalized qRT-PCR expression (Interferon stimulated exonuclease 20 (ISG20) transcript) / H31883_DB71_seg13 normalized qRT-PCR expression (Cyclin-G1 (CCNG1) transcript) / MUSCYCG1R_DB81_seg19-20 normalized qRT-PCR expression / W41270_DB81_seg11 normalized qRT-PCR expression (tumor necrosis factor receptor superfamily, member 12a transcript) / W64472_DB81_seg2 normalized qRT-PCR expression (Interferon stimulated exonuclease 20 (ISG20) transcript) / W83813_DB81_seg27 normalized qRT-PCR expression: un-labeled samples, kidney of individual male/female rats
Outline: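 Rat kidney RNA, labeled and un-labeled samples, run over seven plates; two amplicons per signature gene (wild-type and splice variant). Values normalized to housekeeping genes, then per plate and amplicon by geometric mean of ratios against a shuffled normalization plate (outliers removed), then scaled.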

[3] = system: rat kidney samples; test: Random-Forest classifiers applied to un-labeled samples of T1, T2, T3 and control (Table 30); conditions: for Average 'Toxic' (%): average of the two classifiers
Protocol: To validate the optimal signature for classification of renal toxicity of a compound after five days of application a test of the signatory polynucleotide/gene expression in rat kidney samples consisting of tissues from rats exposed to three drug compounds and a single control group was carried out (Teva Pharmaceutical Industries, IL).
The two optimal classifiers (signatures described in Tables 26 and 27) were applied to the qRT-PCR reads of the un-labeled samples and their calls was used to assign a level of toxicity to each group and, eventually, each compound.
The classifiers described in Tables 26 and 27, were used for testing the un-labeled samples. Both classifiers were applied to the measurements of each sample, used the 30% bound from above, and the number of samples pass that bound in each group were summarized.

[4] = Ds1, Day1, oral gavage, female rat kidney
[5] = Ds1, Day1, oral gavage, male rat kidney
[6] = Ds1, Day5, oral gavage, female rat kidney
[7] = Ds1, Day5, oral gavage, male rat kidney
[8] = Ds2, Day1, oral gavage, female rat kidney
[9] = Ds2, Day1, oral gavage, male rat kidney
[10] = Ds2, Day5, oral gavage, female rat kidney
[11] = Ds2, Day5, oral gavage, male rat kidney

C#CCN(C)c1nc2ccc(OC(F)(F)F)cc2s1 [T1]
Time after which visible pathological damage was seen [1]: 28 days
Renal damage ([1]; dose and duration as in the value): renal damage, mainly in females, after 28 days of treatment at the 30 mg/kg dose
H31883_DB71_seg13 normalized qRT-PCR result [2, 4]: 0.825 and 0.917 and 1.186
MUSCYCG1R_DB81_seg19-20 normalized qRT-PCR result [2, 4]: 0.49 and 0.762 and 0.981
W41270_DB81_seg11 normalized qRT-PCR result [2, 4]: 0.752 and 0.548 and 1.047
H31883_DB71_seg13 normalized qRT-PCR result [2, 5]: 0.155 and 0.178 and 0.143 and 0.169 and 0.245
MUSCYCG1R_DB81_seg19-20 normalized qRT-PCR result [2, 5]: 0.574 and 1.13 and 0.805 and 0.4 and 1.416
W41270_DB81_seg11 normalized qRT-PCR result [2, 5]: 0.778 and 1.501 and 0.981 and 0.439 and 1.502
H31883_DB71_seg13 normalized qRT-PCR result [2, 6]: 1.511 and 1.328 and 1.593 and 0.893
MUSCYCG1R_DB81_seg19-20 normalized qRT-PCR result [2, 6]: 1.162 and 1.367 and 1.089 and 0.831
W41270_DB81_seg11 normalized qRT-PCR result [2, 6]: 0.745 and 0.945 and 0.938 and 0.606
H31883_DB71_seg13 normalized qRT-PCR result [2, 7]: 0.125 and 0.208 and 0.165 and 0.207 and 0.2 and 0.323
MUSCYCG1R_DB81_seg19-20 normalized qRT-PCR result [2, 7]: 2.031 and 0.904 and 0.937 and 0.783 and 1.364 and 0.717
W41270_DB81_seg11 normalized qRT-PCR result [2, 7]: 1.835 and 0.991 and 0.687 and 0.902 and 1.35 and 0.684
H31883_DB71_seg13 normalized qRT-PCR result [2, 8]: 0.861 and 0.549 and 0.725 and 1.045
MUSCYCG1R_DB81_seg19-20 normalized qRT-PCR result [2, 8]: 1.067 and 0.514 and 0.639 and 0.965
W41270_DB81_seg11 normalized qRT-PCR result [2, 8]: 0.898 and 0.415 and 0.502 and 1.028
H31883_DB71_seg13 normalized qRT-PCR result [2, 9]: 0.889 and 0.656 and 0.473
MUSCYCG1R_DB81_seg19-20 normalized qRT-PCR result [2, 9]: 0.932 and 0.544 and 0.541
W41270_DB81_seg11 normalized qRT-PCR result [2, 9]: 1.326 and 0.785 and 0.592
H31883_DB71_seg13 normalized qRT-PCR result [2, 10]: 1.025 and 0.454 and 1.074 and 1.674
MUSCYCG1R_DB81_seg19-20 normalized qRT-PCR result [2, 10]: 0.935 and 1.478 and 0.868 and 1.487
W41270_DB81_seg11 normalized qRT-PCR result [2, 10]: 0.989 and 1.223 and 0.652 and 1.056
H31883_DB71_seg13 normalized qRT-PCR result [2, 11]: 0.654 and 1.077 and 1.236 and 0.596
MUSCYCG1R_DB81_seg19-20 normalized qRT-PCR result [2, 11]: 0.539 and 1.161 and 1.793 and 0.73
W41270_DB81_seg11 normalized qRT-PCR result [2, 11]: 0.527 and 1.181 and 2.203 and 0.784
AI045075_DB71_seg6 normalized qRT-PCR expression (Interferon stimulated exonuclease 20 (ISG20) transcript) ([2]; dose Ds1, Day1, oral gavage): 0.843 and 0.636 and 0.572
H31883_DB71_seg13 normalized qRT-PCR expression (Cyclin-G1 (CCNG1) transcript) ([2]; dose Ds1, Day1, oral gavage): 0.913 and 0.757 and 0.615 and 0.73 and 0.524 and 0.783 and 0.912 and 0.87 and 0.957 and 0.923 and 0.706
MUSCYCG1R_DB81_seg19-20 normalized qRT-PCR expression ([2]; dose Ds1, Day1, oral gavage): 1.49 and 0.291 and 0.271 and 0.376 and 0.135 and 1.436 and 1.195 and 0.249 and 1.891 and 0.299 and 2.31
W41270_DB81_seg11 normalized qRT-PCR expression (tumor necrosis factor receptor superfamily, member 12a transcript) ([2]; dose Ds1, Day1, oral gavage): 0.66 and 0.181 and 0.396 and 0.198 and 0.231 and 0.758 and 0.646 and 0.47 and 1.082 and 0.734 and 0.566
W64472_DB81_seg2 normalized qRT-PCR expression (Interferon stimulated exonuclease 20 (ISG20) transcript) ([2]; dose Ds1, Day1, oral gavage): 1.118 and 0.683 and 0.49
W83813_DB81_seg27 normalized qRT-PCR expression ([2]; dose Ds1, Day1, oral gavage): 0.216 and 0.843 and 0.926
AI045075_DB71_seg6 normalized qRT-PCR expression (Interferon stimulated exonuclease 20 (ISG20) transcript) ([2]; dose Ds1, Day5, oral gavage): 0.692 and 0.627
H31883_DB71_seg13 normalized qRT-PCR expression (Cyclin-G1 (CCNG1) transcript) ([2]; dose Ds1, Day5, oral gavage): 1.373 and 1.353 and 1.266 and 1.783 and 1.477 and 1.097 and 2.104 and 1.249 and 1.458 and 1.23 and 1.01 and 1.013
MUSCYCG1R_DB81_seg19-20 normalized qRT-PCR expression ([2]; dose Ds1, Day5, oral gavage): 1.598 and 0.183 and 0.149 and 0.214 and 3.532 and 0.296 and 3.397 and 0.186 and 1.317 and 0.189 and 0.816 and 1.499
W41270_DB81_seg11 normalized qRT-PCR expression (tumor necrosis factor receptor superfamily, member 12a transcript) ([2]; dose Ds1, Day5, oral gavage): 1.527 and 0.473 and 0.702 and 0.356 and 1.325 and 0.657 (2×) and 1.014 and 1.11 and 1.337 and 0.638 and 0.703
W64472_DB81_seg2 normalized qRT-PCR expression (Interferon stimulated exonuclease 20 (ISG20) transcript) ([2]; dose Ds1, Day5, oral gavage): 0.571 and 0.528
W83813_DB81_seg27 normalized qRT-PCR expression ([2]; dose Ds1, Day5, oral gavage): 0.795 and 0.885
AI045075_DB71_seg6 normalized qRT-PCR expression (Interferon stimulated exonuclease 20 (ISG20) transcript) ([2]; dose Ds2, Day1, oral gavage): 0.483 and 0.759 and 0.448 and 0.547 and 0.396
H31883_DB71_seg13 normalized qRT-PCR expression (Cyclin-G1 (CCNG1) transcript) ([2]; dose Ds2, Day1, oral gavage): 0.517 (2×) and 0.906 and 0.849 and 0.696 and 0.611 and 0.707 and 0.867 and 1.153 and 1.19 and 0.623 and 0.798
MUSCYCG1R_DB81_seg19-20 normalized qRT-PCR expression ([2]; dose Ds2, Day1, oral gavage): 0.385 and 0.76 and 0.739 and 0.478 and 0.738 and 0.652 and 0.654 and 1.261 and 0.609 and 0.835 and 0.696 and 0.804
W41270_DB81_seg11 normalized qRT-PCR expression (tumor necrosis factor receptor superfamily, member 12a transcript) ([2]; dose Ds2, Day1, oral gavage): 0.78 and 0.755 and 0.885 and 0.462 and 0.413 and 0.762 and 0.644 and 1.034 and 1.265 and 0.653 and 0.383 and 0.472
W64472_DB81_seg2 normalized qRT-PCR expression (Interferon stimulated exonuclease 20 (ISG20) transcript) ([2]; dose Ds2, Day1, oral gavage): 0.944 and 1.213 and 0.661 and 0.559 and 0.462
W83813_DB81_seg27 normalized qRT-PCR expression ([2]; dose Ds2, Day1, oral gavage): 1.186 and 0.984 and 0.34 and 0.689 and 0.56
AI045075_DB71_seg6 normalized qRT-PCR expression (Interferon stimulated exonuclease 20 (ISG20) transcript) ([2]; dose Ds2, Day5, oral gavage): 0.797 and 0.766 and 1.01 and 0.629
H31883_DB71_seg13 normalized qRT-PCR expression (Cyclin-G1 (CCNG1) transcript) ([2]; dose Ds2, Day5, oral gavage): 1.36 and 1.037 and 1.84 and 1.348 and 2.423 and 1.13 and 2.468 and 1.684 and 1.672 and 1.663 and 1.554 and 0.996
MUSCYCG1R_DB81_seg19-20 normalized qRT-PCR expression ([2]; dose Ds2, Day5, oral gavage): 0.359 and 0.871 and 0.852 and 0.761 and 1.197 and 0.631 and 1.238 and 0.528 and 1.583 and 1.018 and 0.919 and 0.756
W41270_DB81_seg11 normalized qRT-PCR expression (tumor necrosis factor receptor superfamily, member 12a transcript) ([2]; dose Ds2, Day5, oral gavage): 0.009 and 0.391 and 0.964 and 0.713 and 1.825 and 0.453 and 1.254 and 1.111 and 1.126 and 1.164 and 1 and 0.71
W64472_DB81_seg2 normalized qRT-PCR expression (Interferon stimulated exonuclease 20 (ISG20) transcript) ([2]; dose Ds2, Day5, oral gavage): 0.803 and 0.863 and 0.982 and 0.554
W83813_DB81_seg27 normalized qRT-PCR expression ([2]; dose Ds2, Day5, oral gavage): 1.092 and 1.125 and 0.885 and 0.55
Average 'Toxic' (%) ([3]; Ds1 Day1 Female): 0%
Average 'Toxic' (%) ([3]; Ds1 Day1 Male): 17%
Average 'Toxic' (%) ([3]; Ds1 Day5 Female): 50%
Average 'Toxic' (%) ([3]; Ds1 Day5 Male): 50%
Average 'Toxic' (%) ([3]; Ds2 Day1 Female): 0%
Average 'Toxic' (%) ([3]; Ds2 Day1 Male): 0%
Average 'Toxic' (%) ([3]; Ds2 Day5 Female): 66.5%
Average 'Toxic' (%) ([3]; Ds2 Day5 Male): 33%
Toxicity conclusion from classifier calls ([3]; signatures of Tables 26 and 27, 30% bound): nephrotoxic agents

— patent US20160177395A1, “BIOMARKERS FOR THE PREDICTION OF RENAL INJURY” (priority 2007, published 2016)
